Source: patent publication US20190048052A1, “ANTI-MICROBIAL PEPTIDES AND COATINGS” (Board of Regents of the University of Nebraska, priority 2016, published 2019)
Residues, ends and D or L forms follow the SMILES beside them.

Columns and labels:
Assay type in all cases: cell-based, Staphylococcus aureus
S. aureus USA300 [1] = experiment: Preformed biofilm disruption (XTT); settings: 25 μM, 24 hour preformed biofilms
Experimental: (§1) Three types of experiments were conducted to evaluate the anti-biofilm activity of these peptides against S. aureus USA300, which was grown in tryptic soy broth (TSB) media in flat bottom, 96-well, polystyrene microtiter plates (Mishra et al. (2015) RSC Advances 5:59758-59769; Dean et al. (2011) BMC Microbiol., 11:114).
The third experiment evaluates the ability of the peptide to disrupt the biofilms of S. aureus USA300 formed in 24 hours. S. aureus USA300 (10^5 CFU/mL) in fresh TSB media was made from an exponentially growing culture. 200 μL of this bacterial culture was added to each well of the microtiter plates. The plates are then incubated at 37° C. for 24 hours to allow biofilm formation. Media was then carefully removed followed by washing with sterile 1×PBS to remove any unattached bacteria. Solution containing 20 μL of 10× peptide solution and 180 μL of fresh TSB were added. The plates were again incubated at 37° C. for another 24 hours. The extent of peptide disruption of biofilms was quantified using the same XTT method described above.

S. aureus USA300 [2] = tested on: S. aureus USA300
Outline: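 USA300 (10^5 CFU/mL) biofilms grown statically in TSB for 24 h at 37° C, washed, then exposed to peptide in fresh TSB for another 24 h at 37° C. Residual biomass read by crystal violet staining at 600 nm; viable cells by 10% XTT, 2 h at 37° C, absorbance 450 nm. Biofilm reduction expressed as percent of untreated wells.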

S. aureus USA300 [3] = settings: USA300, 20 h
Experimental: The antimicrobial activity of peptides was evaluated using a standard broth microdilution protocol. In brief, exponential phase bacteria at 10^6 CFU were incubated with serially diluted peptides overnight for ˜20 hours at 37° C. The plates were read on a ChroMate® 4300 Microplate Reader at 630 nm (GMI, Ramsey, Minn.).

S. aureus USA300 [4] = experiment: Inhibition of bacterial attachment (XTT); settings: 25 μM
Experimental: as §1
The first experiment measures the ability of the peptide to inhibit bacterial attachment, the initial step for biofilm formation. In short, overnight cultures of S. aureus USA300 were grown in TSB media to an optical density (600 nm) of ˜1.0. 180 μL of this culture was added to each well of the microtiter plates containing 20 μL of 10× peptide solution. The plates are then incubated at 37° C. for 1 hour. Media with bacteria were then pipetted out and chambers were washed with 1×PBS to remove non-adherent cells. The inhibition of biofilms was estimated by XTT [2,3-bis(2-methyloxy-4-nitro-5-sulfophenyl)-2H-tertazolium-5-carboxanilide] assay by following the manufacturer's instructions with modifications. 180 μL of fresh TSB and 20 μL of XTT solution was added to each well and the plates were again incubated for 2 hours at 37° C. Absorbance at 450 nm (only media with XTT containing wells served as the blank) was obtained using a Chromate® microtiter plate reader. […]

S. aureus USA300 [5] = experiment: FITC entry into live bacteria, confocal microscopy; settings: peptide and FITC 9 μM
Experimental: The entrance of a fluorescent dye into live bacterial cells was also followed by confocal microscopy (Mishra et al. (2015) RSC Advances 5:59758-59769). In brief, S. aureus USA300 was grown to the exponential phase from the overnight culture. The cells were then washed twice with fresh 1×PBS (pH 7.2) and the final cell density was adjusted to 1×10^8 CFU/mL. 1500 μL of the culture was added to the chambers of cuvettes (borosilicate cover glass systems; Nunc Cat. No. 155380) with equimolar concentrations of TetraF2W-RK and fluorescein isothiocyanate FITC (9 μM). The samples were examined with a confocal laser scanning microscope (Zeiss 710) with live time series of picture taken every 5 seconds for 5 minutes and the data were processed using Zen 2010 software.

S. aureus USA300 [6] = experiment: Live cell penetration experiment (FITC, confocal); settings: peptide and FITC 12.5 μM
Experimental: The entrance of a fluorescent dye into live bacterial cells was followed by confocal microscopy (Mishra et al. (2015) RSC Advances 5:59758-59769). In short, S. aureus USA300 was grown to the exponential phase from the overnight culture. The cells were then washed twice with fresh 1×PBS (pH 7.2) and the final cell density was adjusted to 1×10^8 CFU/mL. 1500 μL of the culture was added to the chambers of cuvettes (borosilicate cover glass systems) with equimolar concentrations of TetraF2W-RK and fluorescein isothiocyanate FITC (12.5 μM). The samples were examined with a confocal laser scanning microscope (Zeiss 710) with a series of live time pictures taken at every 5 seconds for 5 minutes and the data were processed using Zen 2010 software.

Q: Which results are given for CC[C@H](C)[C@H](NC(=O)[C@H](CCCNC(=N)N)NC(=O)[C@H](CCCNC(=N)N)NC(=O)[C@H](CC(C)C)NC(=O)[C@H](Cc1c[nH]c2ccccc12)NC(=O)[C@H](Cc1c[nH]c2ccccc12)NC(=O)[C@@H](N)Cc1c[nH]c2ccccc12)C(=O)N[C@@H](Cc1c[nH]c2ccccc12)C(N)=O [TetraF2W-RR, WWWLRRIW] (H-WWWLRRIW-NH2; N-terminus assumed)?
A: disruption of preformed biofilms (S. aureus USA300 [1]): ~77%; killing in preformed biofilms (XTT) (S. aureus USA300 [2]; 6.2 μM): only the WT was active; killing in preformed biofilms (XTT), words (S. aureus USA300 [2]; 12.5 μM): nearly all S. aureus USA300 was eliminated; S. aureus (MIC) (S. aureus USA300 [3]): 3.1 µM; reduction of adherence of bacterial cells (S. aureus USA300 [4]): 83%

Q: For CC[C@H](C)[C@H](NC(=O)[C@H](CCCCN)NC(=O)[C@H](CCCNC(=N)N)NC(=O)[C@H](CC(C)C)NC(=O)[C@H](Cc1c[nH]c2ccccc12)NC(=O)[C@H](Cc1c[nH]c2ccccc12)NC(=O)[C@@H](N)Cc1c[nH]c2ccccc12)C(=O)N[C@@H](Cc1c[nH]c2ccccc12)C(N)=O [TetraF2W-RK, WWWLRKIW] (H-WWWLRKIW-NH2; N-terminus assumed), which “time for FITC to enter the majority of cells” value (S. aureus USA300 [5]) is on record?
A: The value was 30 s.

Q: And the “time to entry of FITC into bacteria after peptide treatment” value (S. aureus USA300 [6])?
A: The value was 30 s.
